Experimental findings from patent US9596874B2, “Bitter taste masking compositions and method of masking bitter taste” (Givaudan S.A., priority 2010, dated 2017) are described below.

Structures are written as SMILES.

The assay is described as follows: Panel tasting of KCl/NaCl solutions in water. As to conditions: for masking of the off-notes of KCl: 5000 ppm sugar alcohol in water with 1600 ppm KCl and 800 ppm NaCl, panel of professional tasters. The method, then: Three solutions were prepared: • A 1600 ppm of KCl and 800 ppm of NaCl in water • B 1600 ppm of KCl and 800 ppm of NaCl in water containing 5000 ppm of mannitol • C 1600 ppm of KCl and 800 ppm of NaCl in water containing 5000 ppm of dulcitol The solutions were compared by a panel of professional tasters.

Consider `OC[C@@H](O)[C@H](O)[C@H](O)[C@@H](O)CO` [dulcitol, Galactitol (=dulcitol)], for which the “masking of the off-notes of KCl” value was “mask the off-notes KCl well”. For the same molecule, where the note is “5000 ppm dulcitol vs 5000 ppm mannitol, 1600 ppm KCl and 800 ppm NaCl in water, panel”, the “masking compared with mannitol” value was “noticeably better in masking”. Besides, under “5000 ppm dulcitol, 1600 ppm KCl and 800 ppm NaCl in water, panel”, the taste perception result is recorded as “more positive, described as ‘rounded-off’, perception”.

As to `OC[C@@H](O)[C@@H](O)[C@H](O)[C@H](O)CO` [mannitol, Mannitol], the “masking of the off-notes of KCl” value was “mask the off-notes KCl well”.
